Reference: PubChem BioAssay (NCI)
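48-hour exposure; five concentrations; linearly interpolated endpoints. Here, GI50 denotes the concentration required for 50% inhibition of growth. The concentration for full growth arrest is given as TGI.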

Key:
Experiment in all cases: inhibition of tumour cell growth, NCI panel, 48 h
[1] = tested on: 786-0 renal
[2] = tested on: A498 renal
[3] = tested on: A549 NSCLC
[4] = tested on: ACHN renal
[5] = tested on: BT-549 breast
[6] = tested on: CAKI-1 renal
[7] = tested on: CCRF-CEM leukemia
[8] = tested on: DU-145 prostate
[9] = tested on: EKVX NSCLC
[10] = tested on: HCC-2998 colon
[11] = tested on: HCT-15 colon
[12] = tested on: HL-60(TB) leukemia
[13] = tested on: HOP-92 NSCLC
[14] = tested on: HS 578T breast
[15] = tested on: IGROV1 ovarian
[16] = tested on: K-562 leukemia
[17] = tested on: KM12 colon
[18] = tested on: M14 melanoma
[19] = tested on: MCF7 breast
[20] = tested on: MDA-MB-231 breast
[21] = tested on: MDA-MB-435
[22] = tested on: MOLT-4 leukemia
[23] = tested on: NCI-H226 lung
[24] = tested on: NCI-H23 lung
[25] = tested on: NCI-H460 lung
[26] = tested on: NCI-H522 lung
[27] = tested on: NCI/ADR-RES ovarian
[28] = tested on: OVCAR-3 ovarian
[29] = tested on: OVCAR-5 ovarian
[30] = tested on: OVCAR-8 ovarian
[31] = tested on: PC-3 prostate
[32] = tested on: RPMI-8226 leukemia
[33] = tested on: SF-268 CNS
[34] = tested on: SF-295 CNS
[35] = tested on: SF-539 CNS
[36] = tested on: SK-MEL-2 melanoma
[37] = tested on: SK-MEL-5 melanoma
[38] = tested on: SN12C renal
[39] = tested on: SR leukemia
[40] = tested on: SW-620 colon
[41] = tested on: TK-10 renal
[42] = tested on: UACC-257 melanoma
[43] = tested on: UACC-62 melanoma
[44] = tested on: UO-31 renal

Q: `O=C1C=CC(=O)C(c2cc(-c3ccc(Cl)cc3)nn2-c2ccccc2)=C1` was tested. Which GI50 [1] did it give?
A: Its GI50 is 16.9 µM.

Q: And the TGI [1]?
A: The TGI was 36.9 µM.

Q: And the GI50 [2]?
A: The GI50 was 10.7 µM.

Q: And the TGI [2]?
A: Its TGI is 48.9 µM.

Q: And the GI50 [3]?
A: The GI50 was 21.9 µM.

Q: And the TGI [3]?
A: The TGI was 55.7 µM.

Q: What about the GI50 [4] of the same compound?
A: The GI50 was 20.6 µM.

Q: And the TGI [4]?
A: The TGI was 41.8 µM.

Q: What about the GI50 [5] of the same compound?
A: The GI50 was 38 µM.

Q: And the TGI [5]?
A: Its TGI is 99.6 µM.

Q: What about the GI50 [6] of the same compound?
A: Its GI50 is 25.8 µM.

Q: What about the TGI [6] of the same compound?
A: Its TGI is 53.5 µM.

Q: What about the GI50 [7] of the same compound?
A: The GI50 was 11.7 µM.

Q: And the TGI [7]?
A: The TGI was 81.8 µM.

Q: And the GI50 [8]?
A: The GI50 was 25.4 µM.

Q: And the TGI [8]?
A: The TGI was 91.1 µM.

Q: And the GI50 [9]?
A: The GI50 was 41.6 µM.

Q: What about the TGI [9] of the same compound?
A: Its TGI is > 100 µM.

Q: And the GI50 [10]?
A: The GI50 was 18.8 µM.

Q: What about the TGI [10] of the same compound?
A: Its TGI is 34.4 µM.

Q: And the GI50 [11]?
A: The GI50 was 30.4 µM.

Q: And the TGI [11]?
A: Its TGI is > 100 µM.

Q: What about the GI50 [12] of the same compound?
A: The GI50 was 36.2 µM.

Q: And the TGI [12]?
A: The TGI was > 100 µM.

Q: And the GI50 [13]?
A: The GI50 was 23.5 µM.

Q: And the TGI [13]?
A: Its TGI is 67.2 µM.

Q: What about the GI50 [14] of the same compound?
A: The GI50 was 23.7 µM.

Q: And the TGI [14]?
A: Its TGI is 86.3 µM.

Q: And the GI50 [15]?
A: The GI50 was 35.8 µM.

Q: What about the TGI [15] of the same compound?
A: Its TGI is > 100 µM.

Q: And the GI50 [16]?
A: The GI50 was 31.1 µM.

Q: And the TGI [16]?
A: Its TGI is > 100 µM.

Q: What about the GI50 [17] of the same compound?
A: The GI50 was 19 µM.

Q: And the TGI [17]?
A: Its TGI is 44.3 µM.

Q: What about the GI50 [18] of the same compound?
A: The GI50 was 16.9 µM.

Q: What about the TGI [18] of the same compound?
A: Its TGI is 35.9 µM.

Q: And the GI50 [19]?
A: Its GI50 is 18.8 µM.

Q: What about the TGI [19] of the same compound?
A: Its TGI is > 100 µM.

Q: And the GI50 [20]?
A: Its GI50 is 12.2 µM.

Q: And the TGI [20]?
A: Its TGI is 29 µM.

Q: And the GI50 [21]?
A: The GI50 was 20.5 µM.

Q: What about the TGI [21] of the same compound?
A: The TGI was 46 µM.

Q: What about the GI50 [22] of the same compound?
A: Its GI50 is 37.4 µM.

Q: What about the TGI [22] of the same compound?
A: Its TGI is > 100 µM.

Q: And the GI50 [23]?
A: The GI50 was 16.9 µM.

Q: What about the TGI [23] of the same compound?
A: The TGI was 59.6 µM.

Q: And the GI50 [24]?
A: The GI50 was 17.5 µM.

Q: What about the TGI [24] of the same compound?
A: The TGI was 42.9 µM.

Q: What about the GI50 [25] of the same compound?
A: The GI50 was 32.2 µM.

Q: What about the TGI [25] of the same compound?
A: The TGI was > 100 µM.

Q: What about the GI50 [26] of the same compound?
A: The GI50 was 25.9 µM.

Q: And the TGI [26]?
A: The TGI was 71.7 µM.

Q: And the GI50 [27]?
A: The GI50 was 23.4 µM.

Q: What about the TGI [27] of the same compound?
A: Its TGI is 54.7 µM.

Q: And the GI50 [28]?
A: The GI50 was 24.8 µM.

Q: And the TGI [28]?
A: Its TGI is 54.6 µM.

Q: And the GI50 [29]?
A: Its GI50 is 27.2 µM.

Q: And the TGI [29]?
A: Its TGI is 72.1 µM.

Q: What about the GI50 [30] of the same compound?
A: The GI50 was 40.5 µM.

Q: What about the TGI [30] of the same compound?
A: The TGI was > 100 µM.

Q: What about the GI50 [31] of the same compound?
A: Its GI50 is 17.4 µM.

Q: And the TGI [31]?
A: The TGI was 41.6 µM.

Q: What about the GI50 [32] of the same compound?
A: The GI50 was 16.1 µM.

Q: And the TGI [32]?
A: The TGI was 41 µM.

Q: And the GI50 [33]?
A: The GI50 was 21 µM.

Q: What about the TGI [33] of the same compound?
A: The TGI was 50 µM.

Q: What about the GI50 [34] of the same compound?
A: Its GI50 is 29.3 µM.

Q: What about the TGI [34] of the same compound?
A: Its TGI is 66.3 µM.

Q: What about the GI50 [35] of the same compound?
A: The GI50 was 27.1 µM.

Q: What about the TGI [35] of the same compound?
A: The TGI was 51.1 µM.

Q: And the GI50 [36]?
A: The GI50 was 51.3 µM.

Q: And the TGI [36]?
A: The TGI was > 100 µM.

Q: And the GI50 [37]?
A: The GI50 was 18.3 µM.

Q: What about the TGI [37] of the same compound?
A: The TGI was 39 µM.

Q: What about the GI50 [38] of the same compound?
A: The GI50 was 23.5 µM.

Q: What about the TGI [38] of the same compound?
A: The TGI was 46.9 µM.

Q: And the GI50 [39]?
A: The GI50 was 34.4 µM.

Q: And the TGI [39]?
A: The TGI was > 100 µM.

Q: What about the GI50 [40] of the same compound?
A: Its GI50 is 32.9 µM.

Q: And the TGI [40]?
A: The TGI was > 100 µM.

Q: And the GI50 [41]?
A: Its GI50 is 19.3 µM.

Q: And the TGI [41]?
A: Its TGI is 45 µM.

Q: And the GI50 [42]?
A: Its GI50 is 29.7 µM.

Q: What about the TGI [42] of the same compound?
A: Its TGI is 71.3 µM.

Q: What about the GI50 [43] of the same compound?
A: The GI50 was 16.6 µM.

Q: What about the TGI [43] of the same compound?
A: The TGI was 30.7 µM.

Q: And the GI50 [44]?
A: The GI50 was 38.1 µM.

Q: And the TGI [44]?
A: Its TGI is > 100 µM.
